Laboratory results as given in patent US7135466B2 (Kirin Beer Kabushiki Kaisha, priority 1999, dated 2006).
pIC50: −log10 of the molar value.

Target: T1, c-kit (Homo sapiens, UniProt P10721)
T1 construct: MO7e (human megakaryocytic leukemia cell line) which had been arrested for 20 hr; endogenous in cells; host or cells: MO7e human megakaryocytic leukemia cell line
Experiment: Inhibitory activity against c-kit autophosphorylation (MO7e cells, h-SCF)
Assay type: cell-based
Conditions: MO7e cells, 50 ng/ml h-SCF; read-out: c-kit IC50
Experimental: Inhibitory Activity Against c-kit Autophosphorylation
MO7e (human megakaryocytic leukemia cell line) which had been arrested for 20 hr was seeded into 96 well plates at an amount of 2×10^5 per well. A solution of a test compound in DMSO was added, and a reaction was then allowed to proceed for one hr. Thereafter, the cells were stimulated by 50 ng/ml of h-SCF for 5 min, followed by replacement with lysate buffer to solubilize the cells.
Next, the solubilized cell sap was transferred to a 96-well plate with an anti-phosphotyrosine antibody (PY-20) previously immobilized thereon, and a reaction was allowed to proceed. Thereafter, the cells were reacted with an anti-c-kit antibody (c-19, Santa Cruz) as a primary antibody and were labelled with GAR (anti-rabbit IgG, horseradish peroxidase, Amersham) as a secondary antibody. Color development was then carried out in a peroxidase color development kit (Sumitomo Bakelite Co., Ltd.), and the absorbance was measured at a wavelength of 450 nm.

T1 sequence (P10721 26-976): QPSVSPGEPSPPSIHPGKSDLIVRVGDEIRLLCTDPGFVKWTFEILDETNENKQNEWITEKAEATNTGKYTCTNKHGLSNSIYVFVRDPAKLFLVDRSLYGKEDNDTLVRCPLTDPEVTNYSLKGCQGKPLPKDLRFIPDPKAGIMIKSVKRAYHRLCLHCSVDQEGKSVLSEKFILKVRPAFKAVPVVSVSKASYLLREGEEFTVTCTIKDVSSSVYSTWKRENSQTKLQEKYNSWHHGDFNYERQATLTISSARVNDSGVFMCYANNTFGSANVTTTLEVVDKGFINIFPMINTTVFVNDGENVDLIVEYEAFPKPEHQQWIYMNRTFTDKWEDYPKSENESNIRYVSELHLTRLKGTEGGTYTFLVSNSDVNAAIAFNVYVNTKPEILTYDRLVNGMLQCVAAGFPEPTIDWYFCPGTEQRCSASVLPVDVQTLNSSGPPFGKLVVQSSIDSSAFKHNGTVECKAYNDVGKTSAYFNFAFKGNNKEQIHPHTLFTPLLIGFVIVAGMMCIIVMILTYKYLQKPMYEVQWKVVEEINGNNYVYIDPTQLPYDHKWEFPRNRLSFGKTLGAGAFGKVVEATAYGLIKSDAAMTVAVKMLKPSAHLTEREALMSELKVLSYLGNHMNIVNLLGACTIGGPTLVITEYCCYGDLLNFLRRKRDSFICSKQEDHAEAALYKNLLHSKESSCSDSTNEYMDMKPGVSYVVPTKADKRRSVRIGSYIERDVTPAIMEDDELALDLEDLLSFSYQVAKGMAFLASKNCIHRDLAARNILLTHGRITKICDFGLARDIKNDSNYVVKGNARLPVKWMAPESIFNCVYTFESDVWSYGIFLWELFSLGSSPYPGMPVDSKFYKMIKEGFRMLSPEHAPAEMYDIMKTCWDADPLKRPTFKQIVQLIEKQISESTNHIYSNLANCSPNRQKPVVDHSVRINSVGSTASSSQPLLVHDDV

Row | pIC50 | Molecule
1 | 6.76 | COc1cc2nccc(Oc3ccc(NC(=O)NNc4ccccc4)c(F)c3)c2cc1OC [Example 612, N-{4-[(6,7-Dimethoxy-4-quinolyl)oxy]-2-fluorophenyl}-N′-(phenylamino)urea]
2 | 6.57 | COc1cc(Oc2ccnc3cc(OC)c(OC)cc23)ccc1NC(=O)NCCN1CCCCC1 [Example 681, N-{4-[(6,7-Dimethoxy-4-quinolyl)oxy]-2-methoxyphenyl}-N′-(2-piperidinoethyl)urea]
3 | 6.52 | COc1cc2nccc(Oc3ccc(NC(=S)NC(=O)Cc4ccccc4F)cc3)c2cc1OC [Example 729, N-{4-[(6,7-Dimethoxy-4-quinolyl)oxy]phenyl}-N′-[2-(2-fluorophenyl)acetyl]thiourea]

Same assay, conditions: MO7e cells, h-SCF 50 ng/ml; read-out: c-kit IC50

Row | Molecule | pIC50
4 | 4-Methylbenzyl {2-chloro-4-[(6,7-dimethoxy-4-quinazolinyl)oxy]anilino}methanethioate [Example 111] | 6.12
5 | 4-Methylbenzyl {4-[(6,7-dimethoxy-4-quinazolinyl)oxy]anilino}methanethioate [Example 110] | 6.96
6 | COc1cc2nccc(Oc3ccc(NC(=O)SCc4ccc(C)cc4)cc3)c2cc1OC [Example 107, 4-Methylbenzyl {4-[(6,7-dimethoxy-4-quinolyl)oxy]anilino}methanethioate] | 6.43
7 | COc1cc2nccc(Oc3ccc(NC(=O)SCc4ccc(C)cc4)c(C)c3C)c2cc1OC [Example 108, 4-Methylbenzyl {4-[(6,7-dimethoxy-4-quinolyl)oxy]-2,3-dimethylanilino}methanethioate] | 6.74
8 | COc1cc2nccc(Oc3cc(C)c(NC(=O)SCc4ccc(C)cc4)cc3C)c2cc1OC [Example 109, 4-Methylbenzyl {4-[(6,7-dimethoxy-4-quinolyl)oxy]-2,5-dimethylanilino}methanethioate] | 6.39
9 | COc1cc2nccc(Oc3ccc(NC(=O)Oc4ccccc4)cc3)c2cc1OC [Example 216, Phenyl N-{4-[(6,7-dimethoxy-4-quinolyl)oxy]phenyl}carbamate] | 7.72
10 | COc1cc2nccc(Oc3ccc(NC(=O)Oc4ccccc4)c(C)c3C)c2cc1OC [Example 217, Phenyl N-{4-[(6,7-dimethoxy-4-quinolyl)oxy]-2,3-dimethylphenyl}carbamate] | 7.41
11 | COc1cc2nccc(Oc3cc(C)c(NC(=O)OCc4ccccc4)cc3C)c2cc1OC [Example 218, Benzyl N-{4-[(6,7-dimethoxy-4-quinolyl)oxy]-2,5-dimethylphenyl}carbamate] | 6.91
12 | COc1cc2nccc(Oc3ccc(NC(=O)OCc4ccccc4)c(C)c3C)c2cc1OC [Example 219, Benzyl N-{4-[(6,7-dimethoxy-4-quinolyl)oxy]-2,3-dimethylphenyl}carbamate] | > 7.52
13 | COc1cc2ncnc(Oc3ccc(NC(=O)OCc4ccccc4)cc3)c2cc1OC [Example 220, Benzyl N-{4-[(6,7-dimethoxy-4-quinazolinyl)oxy]phenyl}carbamate] | 7.11
14 | COc1cc2nccc(Oc3cc(C)c(NC(=O)OC4CCCCC4)cc3C)c2cc1OC [Example 221, Cyclohexyl N-{4-[(6,7-dimethoxy-4-quinolyl)oxy]-2,5-dimethylphenyl}carbamate] | 6.96
15 | COc1cc2nccc(Oc3ccc(NC(=O)OC4CCCCC4)c(C)c3C)c2cc1OC [Example 222, Cyclohexyl N-{4-[(6,7-dimethoxy-4-quinolyl)oxy]-2,3-dimethylphenyl}carbamate] | 7.00
16 | COc1cc2nccc(Oc3cc(C)c(NC(=O)Oc4ccccc4)cc3C)c2cc1OC [Example 224, Phenyl N-{4-[(6,7-dimethoxy-4-quinolyl)oxy]-2,5-dimethylphenyl}carbamate] | 6.83
17 | COc1cc2ncnc(Oc3ccc(NC(=O)OCc4ccccc4)c(Cl)c3)c2cc1OC [Example 225, Benzyl N-{2-chloro-4-[(6,7-dimethoxy-4-quinazolinyl)oxy]phenyl}carbamate] | 6.34

Further lines, results first:

Row | pIC50 | Molecule
18 | 7.14 | COc1cccc(COC(=O)Nc2ccc(Oc3ccnc4cc(OC)c(OC)cc34)cc2)c1 [Example 226, 3-Methoxybenzyl N-{4-[(6,7-dimethoxy-4-quinolyl)oxy]phenyl}carbamate]
19 | 6.71 | COc1cc2nccc(Oc3ccc(NC(=O)OCc4ccccc4Cl)cc3)c2cc1OC [Example 227, 2-Chlorobenzyl N-{4-[(6,7-dimethoxy-4-quinolyl)oxy]phenyl}carbamate]
20 | 7.15 | COc1cc2nccc(Oc3ccc(NC(=O)OCc4cccc(Cl)c4)cc3)c2cc1OC [Example 228, 3-Chlorobenzyl N-{4-[(6,7-dimethoxy-4-quinolyl)oxy]phenyl}carbamate]
21 | 7.33 | COc1cc2nccc(Oc3ccc(NC(=O)OCc4ccc(Cl)cc4)cc3)c2cc1OC [Example 229, 4-Chlorobenzyl N-{4-[(6,7-dimethoxy-4-quinolyl)oxy]phenyl}carbamate]
22 | 7.47 | C=CCCCOC(=O)Nc1ccc(Oc2ccnc3cc(OC)c(OC)cc23)cc1 [Example 266, 4-Pentenyl N-{4-[(6,7-dimethoxy-4-quinolyl)oxy]phenyl}carbamate]
23 | 7.46 | C=CCCCOC(=O)Nc1cc(C)c(Oc2ccnc3cc(OC)c(OC)cc23)cc1C [Example 267, 4-Pentenyl N-{4-[(6,7-dimethoxy-4-quinolyl)oxy]-2,5-dimethylphenyl}carbamate]
24 | 7.47 | C=CCCCOC(=O)Nc1ccc(Oc2ccnc3cc(OC)c(OC)cc23)c(C)c1C [Example 268, 4-Pentenyl N-{4-[(6,7-dimethoxy-4-quinolyl)oxy]-2,3-dimethylphenyl}carbamate]
25 | 6.91 | CCCCOC(=O)Nc1ccc(Oc2ncnc3cc(OC)c(OC)cc23)cc1Cl [Example 345, Butyl N-{2-chloro-4-[(6,7-dimethoxy-4-quinazolinyl)oxy]phenyl}carbamate]

Same assay, conditions: Mo7e, figure in parentheses in −( ); at 1000 nM

Row | inhibition at 1 µM | Molecule
26 | 14% | CCCCC(CCCC)OC(=O)Nc1ccc(Oc2ncnc3cc(OC)c(OC)cc23)cc1Cl [Example 372, 1-Butylpentyl N-{2-chloro-4-[(6,7-dimethoxy-4-quinazolinyl)oxy]phenyl}carbamate]

Same assay, conditions: Mo7e, figure within parentheses in −( ) or >1000( ); at 1000 nM

Row | inhibition at 1 µM | Molecule
27 | 23% | C#CCC(CC)OC(=O)Nc1ccc(Oc2ncnc3cc(OC)c(OC)cc23)cc1OC (centres unmarked) [Example 502, 1-Ethyl-3-butynyl N-{4-[(6,7-dimethoxy-4-quinazolinyl)oxy]-2-methoxyphenyl}carbamate]
28 | 28% | CCCCC(CCCC)OC(=O)Nc1ccc(Oc2ncnc3cc(OC)c(OC)cc23)cc1[N+](=O)[O-] [Example 508, 1-Butylpentyl N-{4-[(6,7-dimethoxy-4-quinazolinyl)oxy]-2-nitrophenyl}carbamate]
29 | 31% | CCN(CC)CCCNC(=S)Nc1ccc(Oc2ncnc3cc(OC)c(OC)cc23)cc1 [Example 531, N-{4-[(6,7-Dimethoxy-4-quinazolinyl)oxy]phenyl}-N′-(3-diethylaminopropyl)thiourea]
30 | 7% | COc1cc2ncnc(Oc3ccc(NC(=S)NCCCN4CCN(C)CC4)cc3)c2cc1OC [Example 536]
31 | 29% | COc1cc2nccc(Oc3ccc(NC(=O)NN4CCCCC4)c(F)c3)c2cc1OC [Example 613, N-{4-[(6,7-Dimethoxy-4-quinolyl)oxy]-2-fluorophenyl}-N′-(1-piperidinyl)urea]
32 | 30% | COc1cc2ncnc(Oc3ccc(NC(=O)NCCN4CCCC4)cc3)c2cc1OC [Example 621, N-{4-[(6,7-Dimethoxy-4-quinazolinyl)oxy]phenyl}-N′-(2-tetrahydro-1H-1-pyrrolylethyl)urea]
